{"source": "paper PMC8784342", "about": "“Investigation of sugar binding kinetics of the E. coli sugar/H^+ symporter XylE using solid-supported membrane-based electrophysiology” (The Journal of Biological Chemistry, 2021)", "key": {"E325A LacY": {"target": "T1, E325A LacY (Escherichia coli, UniProt P02920, E325A)", "T1 construct": "made in house; host or cells: E. coli XL1-Blue", "T1 sequence (P02920 whole entry E325A)": "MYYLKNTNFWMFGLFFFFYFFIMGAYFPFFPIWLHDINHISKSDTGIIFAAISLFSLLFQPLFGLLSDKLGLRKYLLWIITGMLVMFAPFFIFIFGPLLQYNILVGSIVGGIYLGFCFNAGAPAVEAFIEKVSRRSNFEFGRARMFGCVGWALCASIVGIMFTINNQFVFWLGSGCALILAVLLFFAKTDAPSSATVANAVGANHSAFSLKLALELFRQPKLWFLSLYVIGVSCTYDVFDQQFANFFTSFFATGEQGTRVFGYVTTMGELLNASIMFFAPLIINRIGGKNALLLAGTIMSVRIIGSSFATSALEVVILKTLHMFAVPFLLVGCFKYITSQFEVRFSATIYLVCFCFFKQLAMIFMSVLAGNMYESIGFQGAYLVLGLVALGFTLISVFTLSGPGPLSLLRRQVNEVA", "experiment": "SSM-based electrophysiology, transport-deficient mutant E325A LacY (PSS currents, electrogenic binding)", "format": "biochemical", "method": "(§1) Reconstitution of purified proteins (2–20 mg/ml) was carried out with E. coli phospholipids (Avanti Polar Lipids, E. coli polar lipid extract). Preformed liposomes (0.2–2 ml, 10 mg/ml) were dissolved in 1% (w/v) n-octyl-β-D-glucoside, and the protein suspension was mixed on ice to a concentration of 0.2 mg protein/mg lipid (LPR 5).\n(§2) Wt XylE, wt FucP, and the mutant proteins were reconstituted using overnight incubation in 400 mg/ml BioBeads (SM-2 Adsorbent Media, Bio-Rad) at 4 °C. After reconstitution, the samples were diluted to 2.5 mg/ml lipid concentration, frozen in liquid nitrogen, and stored at −80 °C. For wt LacY and mutant proteins, this procedure was not successful. We, therefore, applied the previously established n-octyl-β-D-glucoside dilution method (1:100) ([69]).\n(§3) SSM measurements were performed as described ([20], [23]). After thawing the sample and sonication in a water bath, 30 μl of proteoliposomes (2.5 mg/ml lipid at LPR 5) was allowed to adsorb for 1 to 2 h to an octadecanethiol/phosphatidylcholine hybrid bilayer on a gold surface (the sensor).\n(§4) For measurements, a single solution exchange configuration ([23]) was employed that consisted in three phases of 0.5 s duration each: Flow of nonactivating solution (NA), activating solution (A), and nonactivating solution (NA). Only the activating solution contained the sugar. When pH dependence is determined, pH of NA and A solutions during one experiment are kept constant. Between experiments using different pH values, the sensor was incubated at the new pH for 3 min to equilibrate the intraliposomal pH.\n(§5) Instruments with different time resolution were used as required. […] Currents were recorded throughout the entire time and amplified with a current amplifier set to a gain of […] and a rise time of 10 ms (low time-resolution set up) or 3 ms (high time-resolution set up).\n(§6) All NA solutions were buffered in 100 mM KPi at a given pH value. NA solutions used with LacY contained 1 mM DTT in addition. A solutions were made from NA solutions by adding the respective sugar at a given concentration to induce the symport reaction. Sugar concentration jumps initiated sugar-proton symport, and charge transfer was measured by capacitive coupling. Therefore, only transient currents were recorded.\n(§7) Each dataset represented with error bars was generated by performing the same experiment on multiple sensors (n ≥ 3). Error bars represent standard deviations of the average value. When peak currents are averaged across sensors, datasets are normalized before averaging. When the protein catalyzes transport and PSS currents are negligible, the peak current of the transient represents a good approximation of the current generated by the steady-state symport activity of the transporter. In most cases, peak currents have been used to derive kinetic and thermodynamic parameters according to the equations given in Figure 2 (KM, Imax ∼ Vmax, Hill coefficient n), Figure 4 (KD and rate constants for sugar binding kon and release koff), and Figure 6 (pKa for proton binding and pKb for proton release). Reconstruction of transporter currents for analysis of biphasic currents has been performed as described previously ([70]). This is required when transport and PSS currents are observed at the same time."}, "single-Cys LacY": {"target": "single-Cys LacY", "set-up": "method as in PMID 7918438, PMID 15304639", "conditions": "read-out: KD, protection against labeling; cited from earlier work"}, "wt LacY [1]": {"target": "T2, wt LacY (Escherichia coli, UniProt P02920)", "T2 construct": "made in house; host or cells: E. coli XL1-Blue", "T2 sequence (P02920 1-417)": "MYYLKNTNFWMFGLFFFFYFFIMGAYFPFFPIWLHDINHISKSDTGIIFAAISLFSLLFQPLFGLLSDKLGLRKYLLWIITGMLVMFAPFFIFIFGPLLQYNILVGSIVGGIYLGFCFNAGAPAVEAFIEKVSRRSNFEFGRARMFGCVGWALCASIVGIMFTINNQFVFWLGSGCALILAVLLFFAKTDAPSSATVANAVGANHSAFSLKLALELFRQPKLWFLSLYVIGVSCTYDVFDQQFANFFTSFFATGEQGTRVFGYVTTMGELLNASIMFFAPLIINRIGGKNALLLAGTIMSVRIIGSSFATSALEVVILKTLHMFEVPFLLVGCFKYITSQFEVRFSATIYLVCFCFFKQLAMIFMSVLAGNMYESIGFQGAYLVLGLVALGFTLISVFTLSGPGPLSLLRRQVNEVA", "conditions": "pH 7.6, main substrate, cited from earlier work"}, "wt LacY [2]": {"target": "T2, wt LacY", "experiment": "SSM-based electrophysiology, proteoliposomes with wt LacY", "format": "biochemical", "conditions": "pH 5.0; 100 mM substrate", "method": "as §1, §2, §3, §4, §5, §6, §7"}, "LacY": {"test_system": "LacY", "conditions": "cited from earlier work"}, "D46N FucP": {"target": "T3, D46N FucP (Escherichia coli, UniProt P11551, D46N)", "T3 construct": "made in house; host or cells: E. coli BL21 DE3", "T3 sequence (P11551 whole entry D46N)": "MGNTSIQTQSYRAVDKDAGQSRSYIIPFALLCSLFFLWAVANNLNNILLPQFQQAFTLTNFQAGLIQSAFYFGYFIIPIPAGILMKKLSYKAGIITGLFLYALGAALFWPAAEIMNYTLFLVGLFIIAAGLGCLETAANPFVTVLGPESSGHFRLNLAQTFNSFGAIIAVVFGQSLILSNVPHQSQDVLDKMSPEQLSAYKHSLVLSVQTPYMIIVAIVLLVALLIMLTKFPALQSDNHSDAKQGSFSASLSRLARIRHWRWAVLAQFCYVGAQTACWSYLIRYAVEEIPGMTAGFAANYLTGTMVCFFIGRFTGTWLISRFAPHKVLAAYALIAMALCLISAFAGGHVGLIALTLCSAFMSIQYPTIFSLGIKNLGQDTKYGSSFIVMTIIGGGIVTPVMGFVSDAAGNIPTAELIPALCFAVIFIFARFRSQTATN", "experiment": "SSM-based electrophysiology, transport-deficient mutant D46N FucP (PSS currents)", "format": "biochemical", "method": "as §1, §2, §3, §4, §5, §6, §7"}, "wt FucP [3]": {"target": "T4, wt FucP (Escherichia coli, UniProt P11551)", "T4 construct": "made in house; host or cells: E. coli BL21 DE3", "T4 sequence (P11551 1-438)": "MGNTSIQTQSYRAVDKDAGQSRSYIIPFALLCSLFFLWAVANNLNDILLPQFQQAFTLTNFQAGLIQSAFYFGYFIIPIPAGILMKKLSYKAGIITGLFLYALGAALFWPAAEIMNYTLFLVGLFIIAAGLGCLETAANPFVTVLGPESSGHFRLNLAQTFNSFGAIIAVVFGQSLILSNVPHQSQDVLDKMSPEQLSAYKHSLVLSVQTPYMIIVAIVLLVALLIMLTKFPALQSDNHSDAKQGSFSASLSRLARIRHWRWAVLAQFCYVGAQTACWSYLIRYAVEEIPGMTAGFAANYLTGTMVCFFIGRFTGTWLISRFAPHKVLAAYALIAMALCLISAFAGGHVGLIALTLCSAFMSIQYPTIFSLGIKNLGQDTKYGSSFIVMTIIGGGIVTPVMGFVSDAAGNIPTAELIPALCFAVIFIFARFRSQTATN", "experiment": "SSM-based electrophysiology, proteoliposomes with wt FucP", "format": "biochemical", "method": "as §1, §2, §3, §4, §5, §6, §7"}, "wt XylE": {"target": "wt XylE (Escherichia coli, UniProt P0AGF4)", "sequence (P0AGF4 whole entry)": "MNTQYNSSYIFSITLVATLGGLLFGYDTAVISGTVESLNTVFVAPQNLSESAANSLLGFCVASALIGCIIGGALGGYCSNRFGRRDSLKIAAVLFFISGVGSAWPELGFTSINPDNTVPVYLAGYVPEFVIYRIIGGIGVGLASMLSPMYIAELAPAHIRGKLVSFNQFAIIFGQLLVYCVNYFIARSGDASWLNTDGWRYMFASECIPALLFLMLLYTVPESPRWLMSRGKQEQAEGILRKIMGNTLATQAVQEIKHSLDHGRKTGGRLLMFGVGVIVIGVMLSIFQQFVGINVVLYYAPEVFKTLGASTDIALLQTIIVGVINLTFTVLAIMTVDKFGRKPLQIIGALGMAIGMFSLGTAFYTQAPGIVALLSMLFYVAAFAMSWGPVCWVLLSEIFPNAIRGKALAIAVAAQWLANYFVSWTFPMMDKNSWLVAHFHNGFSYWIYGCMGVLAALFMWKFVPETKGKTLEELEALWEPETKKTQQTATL", "experiment": "biochemical", "set-up": "made in house; host or cells: E. coli BL21 DE3", "conditions": "pH 7.0", "method": "as §1, §2, §3, §4, §5, §6, §7"}, "C154G/V331C LacY": {"test_system": "C154G/V331C LacY", "set-up": "method as in PMID 19383792, PMID 17176050", "conditions": "stopped flow; cited from earlier work"}, "FucP": {"test_system": "FucP", "set-up": "method as in PMID 2829831, PMID 8384447", "conditions": "radioactively labeled sugars; read-out: KM, literature; cited from earlier work"}, "wt FucP [4]": {"target": "T4, wt FucP", "conditions": "pH 7.6, main substrate, cited from earlier work"}, "[5]": {"conditions": "read-out: KM (mM) Michaelis–Menten equation"}}, "note": "Marks after values point to notes of the source that are not given here."}
{"molecule": "OC[C@H]1O[C@@H](O[C@H]2[C@H](O)[C@@H](O)[C@H](O)O[C@@H]2CO)[C@H](O)[C@@H](O)[C@H]1O", "note": "[D-lactose]", "values": [{"measurement": "Kd", "setting": "E325A LacY", "value": "20 ± 3", "unit": "mM"}, {"measurement": "Q (pC) Mut, transferred charge", "setting": "E325A LacY; pH 7.6, saturating substrate (100 mM D-lactose, lactulose; 5 mM TDG)", "value": "3.1 ± 1.8 (pH 7.6) pC"}, {"measurement": "kobs (s^−1) mut", "setting": "E325A LacY; saturating substrate (100 mM D-lactose, lactulose; 5 mM TDG), kobs = 1/τ, limited by time resolution", "value": "260 ± 60", "unit": "s⁻¹"}, {"measurement": "Kd", "setting": "single-Cys LacY", "value": "1 to 10", "unit": "mM"}, {"measurement": "Imax", "setting": "wt LacY [1]", "value": "0.7 ± 0.2", "unit": "nA"}, {"measurement": "Km", "setting": "wt LacY [1]; [5]", "value": "5.3 ± 0.5", "unit": "mM"}, {"measurement": "Q (pC) wt, PSS transferred charge", "setting": "wt LacY [2]", "value": "2.6 ± 0.6 (pH 5.0) pC"}, {"measurement": "transport rate", "setting": "LacY", "value": "30 to 50", "unit": "s⁻¹"}, {"measurement": "Km", "setting": "LacY; radioactively labeled sugars, read-out: KM, literature", "value": "500 to 3000", "unit": "µM"}]}
{"molecule": "O[C@@H]1[C@@H](O)[C@@H](O)CO[C@H]1O", "note": "[L-arabinose]", "values": [{"measurement": "induction of PSS currents", "setting": "D46N FucP", "value": "do not generate PSS currents"}]}
{"molecule": "OC[C@@H]1OC(O)[C@@H](O)[C@H](O)[C@@H]1O", "note": "(stereo partly drawn) [L-galactose]", "values": [{"measurement": "Imax in percent of Imax of the main substrate (L-fucose)", "setting": "wt FucP [3]; pH 7.6", "value": "123 ± 8", "unit": "%"}]}
{"molecule": "OC[C@@H]1OC(O)[C@H](O)[C@@H](O)[C@@H]1O", "note": "(stereo partly drawn) [L-idose]", "values": [{"measurement": "induction of currents (substrate identification)", "setting": "wt XylE", "value": "generated signals identifying them as substrates"}]}
{"molecule": "O=[N+]([O-])c1ccc(OC2O[C@H](CO)[C@H](O)[C@H](O)[C@H]2O)cc1", "note": "(stereo partly drawn) [p-nitrophenyl-D-galactopyranoside]", "values": [{"measurement": "rate constant of the binding reaction", "setting": "C154G/V331C LacY", "value": "10^6 M^−1 s^−1"}, {"measurement": "rate constant of the following conformational changes", "setting": "C154G/V331C LacY", "value": 250, "unit": "s⁻¹"}]}
{"molecule": "L-fucose", "values": [{"measurement": "Km", "setting": "FucP", "value": "20 to 40", "unit": "µM"}, {"measurement": "Imax", "setting": "wt FucP [4]", "value": "0.5 ± 0.2", "unit": "nA"}, {"measurement": "Km", "setting": "wt FucP [4]; [5]", "value": "0.9 ± 0.1", "unit": "mM"}, {"measurement": "induction of PSS currents", "setting": "D46N FucP", "value": "induces PSS currents"}, {"measurement": "kobs (s^−1) mut", "setting": "D46N FucP; 30 mM substrate, low time-resolution set up", "value": "100 ± 20 ^a s^−1"}, {"measurement": "Q (pC) Mut, transferred charge", "setting": "D46N FucP; pH 10.5, 30 mM substrate", "value": "−1.2 ± 0.6 (pH 10.5) pC"}, {"measurement": "KM lower than KM obtained for minor substrates", "setting": "wt FucP [3]; pH 7.6", "value": "7–12 fold"}, {"measurement": "Q (pC) wt, PSS transferred charge", "setting": "wt FucP [3]; pH 10.5, 30 mM substrate, rough estimation", "value": "∼0.5 ^b (pH 10.5) pC"}]}
